Values joined by “and” are separate entries in the source; they are usually repeats but may differ in a detail not shown here. Identical values can stand only once.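 1) Cells in 96-well plates. 2) Compound, 48 h, 5 concentrations. 3) Linear interpolation between surrounding doses. 4) Unreached endpoint = highest concentration. GI50: concentration for 50% inhibition of growth. At the TGI there is no net growth.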

This is an account of results in PubChem BioAssay (NCI).

Holding throughout (test): NCI tumour cell line growth inhibition, 48 h
Assay [1] has as its system COLO 205 colon.
Assay [2] has as its system HCC-2998 colon.
Assay [3] has as its system HL-60(TB) leukemia.
Assay [4] deals with HOP-92 NSCLC.
In assay [5] the test system is HS 578T breast.
Assay [6] deals with NCI-H460 lung.
Assay [7] has as its system OVCAR-8 ovarian.
For assay [8], the system named is PC-3 prostate.
In assay [9] the test system is SK-MEL-5 melanoma.
Assay [10] has as its system UACC-257 melanoma.

`COC(=O)Nc1nc2ccc(Oc3ccc(NC(=O)Nc4cccc(C(=O)O)c4)cc3)cc2[nH]1`: the GI50 is 6.21 µM in [1]; 8.44 µM in assay [2]; 6.1 µM in assay [3]; more than 25 µM in assay [4]; 4.28 µM in assay [5]; 7.21 µM in assay [6]. Also, the GI50 in assay [7] was 9.4 µM; in assay [8] it was 8.44 µM; in assay [9] it was 3.24 µM; in assay [10] it was more than 22.2 µM. Also, the TGI in assay [1] was more than 16.5 µM; in assay [2], more than 25 µM; in [3] it was 17.4 µM; in [4], more than 25 µM; in assay [5] it was 24.5 µM; in assay [6] it was more than 25 µM. The TGI in assay [7] was more than 25 µM; in [8], more than 25 µM; in assay [9], more than 21 µM; in assay [10] it was more than 25 µM.
In the case of `Cn1cc(-c2nc(-c3c[nH]c4ncccc34)cs2)c2cc(F)ccc21`, the GI50 in assay [1] was 2.69 µM; in [2] it was 1.98 µM; in [3], 3.21 µM; in assay [4], 1.92 µM; in [5], 4.23 µM; in assay [6] it was 1.89 µM. Moreover, the GI50 is 2.96 µM in [7], 2.75 µM in assay [8], 2.6 µM in [9] and 2.72 µM in assay [10]. The TGI in assay [1] is 8.52 µM; in assay [2], 7.59 µM; in assay [3] it was 15.6 µM; in assay [4] it was 5.79 µM; in assay [5], more than 100 µM; in assay [6], 6.72 µM. Also, the TGI is more than 25.3 µM in [7], 13.1 µM in [8], 11.5 µM in [9] and 12.3 µM in assay [10].
On to `O=C1NN(c2ccc(C(=O)O)cc2)C(=O)/C1=C\c1ccc([N+](=O)[O-])o1`, for which the GI50 in assay [1] was 20.9 µM; in assay [2], more than 100 µM; in assay [3] it was 34.5 µM; in [4], 29 µM; in assay [5] it was more than 100 µM; in [6], more than 100 µM. The GI50 is 51.1 µM in [7], more than 100 µM in assay [8], more than 100 µM in [9] and more than 100 µM in assay [10]. Also, the TGI in [1] is 38.8 µM; in assay [2], more than 100 µM; in assay [3], 91.7 µM; in [4] it was 74.8 µM; in [5], more than 100 µM; in [6] it was more than 100 µM. Moreover, the TGI in assay [7], in assay [8], in [9] and in assay [10] was more than 100 µM each time.
`COc1ccc2c(c1)C(=O)/C(=C/c1cccc(OCC(=O)Nc3nc4c(s3)CCCC4)c1)O2`: the GI50 in assay [1] was 0.729 µM; in assay [2] it was 1.83 µM; in [3], 0.241 µM; in assay [4] it was 0.18 µM; in [5], 2.28 µM; in assay [6], 3.48 µM. For the same compound, the GI50 in assay [7] was 1.3 µM; in [8], 0.285 µM; in assay [9], 6.08 µM; in assay [10], 11.2 µM. Moreover, the TGI is 2.02 µM in [1]; 3.44 µM in [2]; 0.681 µM in [3]; 0.372 µM in [4]; 10.1 µM in assay [5]; 13.4 µM in assay [6]. The TGI in assay [7] stood at 8.71 µM; in assay [8], 1.01 µM; in [9], 19.4 µM; in assay [10] it was 24.4 µM.
For `Cn1cncc1[C@@](N)(c1ccc(Cl)cc1)c1ccc2c(c1)c(-c1cccc(Cl)c1)cc(=O)n2C`, the GI50 was 2.31 µM in [1]; 1.79 µM in assay [2]; 1.29 µM in assay [3]; 0.174 µM in assay [4]; 2.77 µM in assay [5]; 1.97 µM in assay [6]. Also, the GI50 in assay [7] was 2.78 µM; in [8], 1.47 µM; in assay [9] it was 1.8 µM; in assay [10], 1.37 µM. The TGI was found to be 9.09 µM in assay [1]; 7.08 µM in assay [2]; 4.62 µM in assay [3]; 2.69 µM in [4]; 15.5 µM in assay [5]; 11.9 µM in [6]. For the same compound, the TGI worked out at 14.8 µM in [7], 7.99 µM in assay [8], 6.83 µM in [9] and 12.4 µM in [10].
With `Cc1nn(-c2nc3ccccc3s2)c(C)c1Oc1ccccc1O`, the GI50 in assay [1] was 15.7 µM; in assay [2], 5.73 µM; in assay [3], 4.02 µM; in [4] it was 0.162 µM; in [5] it was 10.3 µM; in assay [6] it was 0.654 µM. Moreover, the GI50 in assay [7] is 8.04 µM; in [8], 6.58 µM; in assay [9] it was 1.3 µM; in assay [10], 3.64 µM. Moreover, the TGI turned out to be 31.1 µM in [1]; 18.9 µM in [2]; 18.1 µM in assay [3]; 16.6 µM in assay [4]; 25.2 µM in [5]; 16.3 µM in assay [6]. The TGI in assay [7] is 25.8 µM; in assay [8], more than 100 µM; in assay [9], 15.3 µM; in [10] it was 14.7 µM.
On to `CCC(C)(C)C(=O)O[C@H]1C[C@@H](C)C=C2C=C[C@H](C)[C@H](CC[C@@H]3C[C@@H](O)CC(=O)O3)[C@H]21`, for which the GI50 is 4.14 µM in assay [1]; 7.89 µM in assay [2]; 6.02 µM in [3]; 0.0335 µM in [4]; 2.7 µM in assay [5]; 3.91 µM in [6]. Also, the GI50 in [8] is 0.367 µM; in [9], 2.23 µM; in [10], 10.8 µM. For the same compound, the TGI in [1] was 14.7 µM and 23.6 µM; in assay [2], 22.1 µM and > 30 µM; in assay [3] it was 20.8 µM and > 30 µM; in assay [5] it was 16.4 µM; in [6], 14.1 µM and > 30 µM; in [7], 18.2 µM and 20.6 µM. In addition, the TGI in [8] is 14.5 µM; in [9], 7.87 µM; in assay [10], 25 µM and > 30 µM.
